Biological target: TSPO (Rattus norvegicus, UniProt P16257)
Assay: Inhibition of [3H]1 binding to rat kidney mitochondrial membranes
Conditions: ratio of Ki, 20 vs Ib, 21 vs Ic

| gain in activity with respect to desmethyl counterpart | Structure (SMILES) |
| --- | --- |
| 25 | CCCCN(CCCC)C(=O)C(=O)c1c(-c2ccccc2)n(C)c2ccccc12 [compound 20] |
| 4.6 | CCCCCCN(CCCCCC)C(=O)C(=O)c1c(-c2ccccc2)n(C)c2ccccc12 [compound 21] |

— article PMC3135721 (Journal of medicinal chemistry, 2010)
